Reference: US20150285812A1, “Fluorescence-Labelled Fatty Acids and Uses Thereof” (SANOFI, priority 2012, published 2015)

Columns and labels:
HSA [1] = target: T1, HSA (Homo sapiens, UniProt P02768); assay: Job plot of the fluorescence: stoichiometry of labelled fatty acids to HSA; type: binding; settings: maximum in the curve or none
T1 construct: purchased Sigma Aldrich A1887
Procedure: The stoichiometry of NBD- and dansyl-labelled fatty acids bound to HSA was determined by Job plots, also called the “method of continuous variability” as different mole fractions of the respective binding partners are mixed with one another and then measured spectroscopically. Solutions of equimolar concentrations of HSA and dye were mixed such that the mole fractions of the substances were varied but the total molarity of the sample solution stayed constant. For short NBD derivatives C2 to C6 (12-14) no binding to HSA was confirmed, whereas binding ratios for long NBD derivatives C8 to C12 (15-17) to HSA were 1:1. For short dansyl derivatives C2 to C8 (19-22) binding ratios for HSA were 2:1, whereas the long dansyl derivatives C10 and C12 (23-24) bound to HSA in the ratio of 4:1. The finding that even dansyl C2 (19) was bound to HSA led to the question as to what extent the dansyl label itself is recognized by HSA. Because even dansyl methylamide (25) bound to HSA, even though it lacks a carboxyl group, it seems that the dye label could also bind to HSA.
For the Job plot the dye and HSA solutions were employed in equimolar amounts. 10.00 ml of 100 μM HSA solution and in each case 2.00 ml of a 100 μM dye solution (12-17; 19-25) were prepared from the above stock solutions. For the Job plot method the dye solutions were mixed with the HSA solution in different ratios as described below in Table 8. […] According to the same dilution scheme the dye solutions were also mixed with DPBS buffer for measuring the blank values of the fluorescence-labelled derivatives (see K. C. Ingham, Analytical Biochemistry 68 (1975) 660-663). […] Absorption was not measured. A fluorescence measurement without a wavelength scan was also carried out in analogy to the above experiment without HSA.
For NBD derivatives (12-17) and HSA 100 μM solutions were used. […] In total 11 solutions per dye derivative were prepared for fluorescence measurement by mixing the two binding partners. […] The fluorescence intensities were plotted against the mole fractions of the binding partners. […]

HSA [2] = target: T1, HSA; assay: Fluorescence of NBD and dansyl dyes with increasing HSA (FRET effect, emission maxima); type: binding; settings: for change in fluorescence intensity with increasing HSA concentration: HSA 1.56 to 200 μM, pH 7.4
Procedure: Absorption and fluorescence of fluorescence-labelled derivatives and HSA were carried out in a Varioskan™ microplate reader (Thermo Electron Corporation). 96 well (Costar, half area, flat bottom) microplates were used for absorption measurements and 384 well (Greiner Bio One, small volume, black) microplates from Greiner Bio One were used for fluorescence measurements. All measurements were carried out at pH 7.4 and room temperature.
5.00 ml of a 400 μM solution were prepared from the HSA stock solution. From this solution a geometric dilution series with 7 dilution steps, a dilution factor of 0.5 and a final volume of each concentration of 2.5 ml were prepared.
Defined concentrations of the fluorescence-labelled compounds were selected from the preceding experiment without HSA above and double-concentrated solutions thereof were prepared to take into account the later 1:1 dilution. For each fluorescence-labelled compound (12-17; 19-25) 1.00 ml of these double-concentrations was prepared. 50 μl of the dye solutions were introduced into a 96 well microplate and 50 μl each of the HSA dilution series were added. By mixing the solutions the concentrations of dye derivatives and the HSA solution were halved. The measurements of the absorption and fluorescence were carried out in analogy to the above experimental procedure without HSA.
In analogy to the absorption measurement the effect of HSA on the fluorescence of the dyes (12-17; 19-25) was determined. The same concentrations of NBD and dansyl dyes and the same concentration range for HSA as already described above were used.

[3] = log D7.4 determination by RP-HPLC, similar to the water/octanol partition coefficient method; type: physicochemical; settings: pH 7.4, RP-HPLC C18, range −1 to +6
Procedure: log D7.4 values were determined by a method similar to the partition coefficient method in a water/octanol mixture and were carried out on an RP-HPLC from Waters Alliance (2795) having a C18 column (2×20 mm) with a gradient of morpholinesulfonic acid buffer (pH 7.4) and acetonitrile. The range was between −1 ([…]) to +6 (lipophilic).

HSA [4] = target: T1, HSA; assay: Displacement of NBD derivatives on HSA by natural fatty acids C6 to C16 (fluorescence); type: binding; set-up: key to displacement of NBD C8 (15) bound to HSA / displacement of NBD C10 (16) bound to HSA / displacement of NBD C12 (17) bound to HSA: + stands for displacement; − for no displacement; settings: for relative binding affinity of the NBD dye for HSA: ranking among NBD C8, C10 and C12 from the competition experiments
Procedure: Dilution series for competition experiments with the fatty acids C6 to C16 were diluted with phosphate-buffered saline solution (DPBS buffer). Geometric dilution series of each fatty acid were prepared in 384 well microplates with a starting concentration of 2500 μM and a dilution factor of 0.33 and also 9 dilution steps. The final volume of each concentration was 80 μl. The plated-out fatty acids were stored in the deep freeze (−25° C.) until use.
For displacement experiments 2.50 ml of a 25 μM HSA solution were used per dye derivative. Due to the subsequent dilution steps the HSA concentration was doubled twice such that 2.50 ml of […] solution were prepared.
The dye concentrations were also doubled twice by the following dilution steps. 2.50 ml of each dye solution were needed. 2.10 ml of the respective dye solution were then mixed with 2.10 ml of the 100 μM HSA solution. The respective concentrations of the solutions halve here once. 50 μl of the mixture per well were introduced into a 96 well microplate.
The fatty acid microplates were brought to room temperature and 50 μl each of the dilution series were pipetted into the HSA-dye mixture. The concentrations of all solution constituents were thereby halved once again. In analogy to the experiments measuring the fluorescence of the fluorescence-labelled derivatives without HSA above, the solutions were pipetted from the 96 well microplate into a 384 well microplate. Absorption was not measured. The fluorescence measurement without a wavelength scan was carried out in analogy to the above-referenced experiment.
A concentration of 25 μM and a binding ratio of the NBD derivatives to HSA of 1:1 were employed for the displacement studies. For each dye derivative an NBD-HSA mixture with a concentration of 25 μM was prepared.

[5] = dansyl compound 100 μM, λex = 330 nm
[6] = NBD-HSA mixture 25 μM, 1:1, competitor natural fatty acid
[7] = NBD compound 25 μM, λex = 480 nm
[8] = NBD derivatives 25 μM, 480-550 nm

T1 sequence (P02768 25-609): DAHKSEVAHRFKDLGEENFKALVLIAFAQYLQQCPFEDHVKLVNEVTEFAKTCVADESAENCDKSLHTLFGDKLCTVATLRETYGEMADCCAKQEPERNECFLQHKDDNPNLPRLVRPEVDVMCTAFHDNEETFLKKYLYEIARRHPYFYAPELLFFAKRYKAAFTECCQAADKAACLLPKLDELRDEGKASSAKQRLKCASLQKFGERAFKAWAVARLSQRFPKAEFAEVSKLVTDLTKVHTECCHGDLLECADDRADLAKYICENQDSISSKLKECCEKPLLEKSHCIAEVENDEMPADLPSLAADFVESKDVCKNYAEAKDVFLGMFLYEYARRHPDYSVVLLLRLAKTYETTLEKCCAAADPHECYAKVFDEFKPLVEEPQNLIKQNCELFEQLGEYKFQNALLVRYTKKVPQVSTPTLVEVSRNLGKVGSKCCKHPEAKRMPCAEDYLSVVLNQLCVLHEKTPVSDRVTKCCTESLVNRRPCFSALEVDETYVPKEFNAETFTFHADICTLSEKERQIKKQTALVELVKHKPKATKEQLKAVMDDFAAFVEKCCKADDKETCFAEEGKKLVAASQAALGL

In the case of CNS(=O)(=O)c1cccc2c(N(C)C)cccc12 [DMA (25), 5-Dimethylaminonaphthalene-1-sulfonic acid methylamide], the “binding to HSA (qualitative)” value (HSA [1]) is reported as “binds to HSA”, the “binding to HSA (qualitative)” value (HSA [1]; listed as dansyl methylamide (25)) is reported as “bound to HSA” and the “Δλ, shift of emission maximum λem without HSA vs with HSA” value (HSA [2]; [5]) is reported as 80 nm. For the same molecule, the “change in fluorescence intensity with increasing HSA concentration” value (shortened to “change … with increasing HSA concentration”) (HSA [2]; dansyl derivatives 100 μM, 330-560 nm) was “smallest fluorescence increase” and the chromatographic logD [3] was 2.76.

With CCCCCC(=O)O [FA C6, caproic acid] the “displacement of NBD C8 (15) bound to HSA” value (HSA [4]; [6]) was “−”, the “displacement of NBD C8 (15) from HSA” value (HSA [4]; [6]) was “did not displace” and the “displacement of NBD C10 (16) bound to HSA” value (HSA [4]; [6]) was “−”. For the same molecule, the “displacement of NBD C10 (16) from HSA” value (HSA [4]; [6]) was “not displaced” and the “displacement of NBD C12 (17) bound to HSA” value (HSA [4]; [6]) was “−”.

With CCCCCCCCCC(=O)O [FA C10, capric acid] the “displacement of NBD C8 (15) bound to HSA” value (HSA [4]; [6]) was “+”, the “displacement of NBD C8 (15) from HSA” value (HSA [4]; [6]) was “displaced” and the “displacement of NBD C10 (16) bound to HSA” value (HSA [4]; [6]) was “unclear”. For the same molecule, the “displacement of NBD C12 (17) bound to HSA” value (HSA [4]; [6]) was “−” and the “displacement of NBD C12 (17) from HSA” value (HSA [4]; [6]) was “no longer capable of displacing”.

With CCCCCCCCCCCC(=O)O [FA C12, lauric acid] the “displacement of NBD C8 (15) bound to HSA” value (HSA [4]; [6]) was “+”, the “displacement of NBD C8 (15) from HSA” value (HSA [4]; [6]) was “displaced” and the “displacement of NBD C10 (16) bound to HSA” value (HSA [4]; [6]) was “+”. For the same molecule, the “displacement of NBD C12 (17) bound to HSA” value (HSA [4]; [6]) was “+” and the “displacement of NBD C12 (17) from HSA” value (HSA [4]; [6]) was “displaced”.

In the case of CCCCCCCCCCCCCC(=O)O [FA C14, myristic acid], the “displacement of NBD C8 (15) bound to HSA” value (HSA [4]; [6]) is reported as “+”, the “displacement of NBD C8 (15) from HSA” value (HSA [4]; [6]) is reported as “displaced” and the “displacement of NBD C10 (16) bound to HSA” value (HSA [4]; [6]) is reported as “+”. For the same molecule, the “displacement of NBD C12 (17) bound to HSA” value (HSA [4]; [6]) was “+”.

In the case of O=C(O)CNc1ccc([N+](=O)[O-])c2nonc12 [NBD C2 (12), 2-(7-nitrobenzo[1,2,5]oxadiazol-4-ylamino)ethanoic acid], the “Δλ, shift of emission maximum λem without HSA vs with HSA” value (HSA [2]; [7]) is reported as 0 nm, the “change … with increasing HSA concentration” value (HSA [2]; [8]) is reported as “no changes in fluorescence intensity” and the “log D7.4” value [3] is reported as < −1.

In the case of O=C(O)CCCNc1ccc([N+](=O)[O-])c2nonc12 [NBD C4 (13), 4-(7-Nitrobenzo[1,2,5]oxadiazol-4-ylamino)butanoic acid], the “Δλ, shift of emission maximum λem without HSA vs with HSA” value (HSA [2]; [7]) is reported as 2 nm, the “change … with increasing HSA concentration” value (HSA [2]; [8]) is reported as “no changes in fluorescence intensity” and the “log D7.4” value [3] is reported as −0.46.

With O=C(O)CCCCCNc1ccc([N+](=O)[O-])c2nonc12 [NBD C6 (14), 6-(7-Nitrobenzo[1,2,5]oxadiazol-4-ylamino)hexanoic acid] the “Δλ, shift of emission maximum λem without HSA vs with HSA” value (HSA [2]; [7]) was 0 nm, the “change … with increasing HSA concentration” value (HSA [2]; [8]) was “no changes in fluorescence intensity” and the chromatographic logD [3] was 0.53.

With O=C(O)CCCCCCCNc1ccc([N+](=O)[O-])c2nonc12 [NBD C8 (15), 8-(7-Nitrobenzo[1,2,5]oxadiazol-4-ylamino)octanoic acid] the “relative binding affinity of the NBD dye for HSA” value (“relative binding affinity” for short) (HSA [4]) was “lowest affinity”, the “Δλ, shift of emission maximum λem without HSA vs with HSA” value (HSA [2]; [7]) was 10 nm and the “change … with increasing HSA concentration” value (HSA [2]; [8]) was “greatest increase in fluorescence intensity”. It also gave a chromatographic logD [3] of 1.29.

For O=C(O)CCCCCCCCCNc1ccc([N+](=O)[O-])c2nonc12 [NBD C10 (16), 10-(7-Nitrobenzo[1,2,5]oxadiazol-4-ylamino)decanoic acid], the “relative binding affinity” value (HSA [4]) was “minimally smaller”, the “relative binding affinity” value (HSA [4]; listed as NBD C10) was “binding strength which lies between these two” and the “Δλ, shift of emission maximum λem without HSA vs with HSA” value (HSA [2]; [7]) was 16 nm. The “change … with increasing HSA concentration” value (HSA [2]; [8]) was “increase in fluorescence intensity” and the chromatographic logD [3] was 2.03.

With CN(C)c1cccc2c(S(=O)(=O)NCC(=O)O)cccc12 [dansyl C2 (19), (5-Dimethylaminonaphthalene-1-sulfonylamino)ethanoic acid] the “binding to HSA (qualitative)” value (HSA [1]) was “bound to HSA”, the “Δλ, shift of emission maximum λem without HSA vs with HSA” value (HSA [2]; [5]) was 94 nm and the chromatographic logD [3] was 1.02.

With CN(C)c1cccc2c(S(=O)(=O)NCCCC(=O)O)cccc12 [dansyl C4 (20), 4-(5-Dimethylaminonaphthalene-1-sulfonylamino)butanoic acid] the “Δλ, shift of emission maximum λem without HSA vs with HSA” value (HSA [2]; [5]) was 88 nm and the chromatographic logD [3] was 1.21.

For CN(C)c1cccc2c(S(=O)(=O)NCCCCCC(=O)O)cccc12 [dansyl C6 (21), 6-(5-Dimethylaminonaphthalene-1-sulfonylamino)hexanoic acid], the “Δλ, shift of emission maximum λem without HSA vs with HSA” value (HSA [2]; [5]) was 82 nm and the chromatographic logD [3] was 1.56.

In the case of CN(C)c1cccc2c(S(=O)(=O)NCCCCCCCC(=O)O)cccc12 [dansyl C8 (22), 8-(5-Dimethylaminonaphthalene-1-sulfonylamino)octanoic acid], the “Δλ, shift of emission maximum λem without HSA vs with HSA” value (HSA [2]; [5]) is reported as 74 nm and the chromatographic logD [3] is reported as 2.1.

In the case of CN(C)c1cccc2c(S(=O)(=O)NCCCCCCCCCC(=O)O)cccc12 [dansyl C10 (23), 10-(5-Dimethylaminonaphthalene-1-sulfonylamino)decanoic acid], the “Δλ, shift of emission maximum λem without HSA vs with HSA” value (HSA [2]; [5]) is reported as 68 nm and the chromatographic logD [3] is reported as 2.74.

With CN(C)c1cccc2c(S(=O)(=O)NCCCCCCCCCCCC(=O)O)cccc12 [dansyl C12 (24), 12-(5-Dimethylaminonaphthalene-1-sulfonylamino)dodecanoic acid] the “Δλ, shift of emission maximum λem without HSA vs with HSA” value (HSA [2]; [5]) was 66 nm, the chromatographic logD [3] was 3.49 and the “log D7.4” value [3] was 3.49.
